Results reported in US20170273961A1, “NOVEL IMINONITRILE DERIVATIVES” (CURADEV PHARMA, PVT. LTD., priority 2014, published 2017).

biological target: T1, IDO1 (Mus musculus, UniProt P28776); test: Reduction of LPS induced plasma kynurenine levels in C57BL/6 mice; assay type: in vivo; settings: LPS-injected (6 mg/kg i.p.) C57BL/6 mice; test compound given orally 20 h after LPS; plasma KYN by LC/MS/MS at 2 hr post dosing
T1 construct: LPS-injected mice have been used as models to study IDO1 expression and activity; from tissue; host or cells: whole animal: LPS-injected C57BL/6 mice, with IDO1 induced in a variety of tissues
Text: Inflammatory mediators such as Lipopolysaccharides (LPS) and Interferon-gamma (IFNg) are well-established inducers of IDO1 expression. Intraperitoneal (i.p.) administration of bacterial lipopolysaccharide (LPS) induces peak IDO1 activity in a variety of tissues within one day after LPS administration resulting in the production and release of kynurenine into the bloodstream (Takikawa, O., et al. (1986) J. Biol. Chem. 261:3648-53; Yoshida, H., et al. (1998) Cell 94:739-750). LPS-injected mice have been used as models to study IDO1 expression and activity. Three—eight fed C57 BL/6 mice (age 7-8 weeks, weight: about 20-22 g) were injected intrapritoneally with bacterial lipopolysaccharide (LPS; 26:B6 Sigma) at a concentration of 6 mg/kg. Animals were then housed in normal condition for 20 hours at which time the test compounds were administered orally in formulation containing 30% polyethylene glycol 400 (PEG 400) and 20% propylene glycol (PG) in normal saline (Dosing volume 10 mL/kg). Blood was drawn through retro-orbital bleeds into a tube containing 100 mM EDTA for plasma collection at the following times: just prior to LPS treatment, just prior to test compound dosing (0 hr) and then at 2 hr, 4 hr, 6 hr, 8 hr, 24 hr and 48 hr post-test compound dosing. Plasma KYN and drug levels were determined by LC/MS/MS using an API4000 mass spectrometer (Applied Biosystems) coupled to a Shimadzu Prominence LC system fitted with a C18 column.
The compounds of the invention decrease kynurenine levels. The compounds of the invention trigger a decrease of kynurenine levels at 2 hrs of at least 5%.

T1 sequence (P28776 whole entry): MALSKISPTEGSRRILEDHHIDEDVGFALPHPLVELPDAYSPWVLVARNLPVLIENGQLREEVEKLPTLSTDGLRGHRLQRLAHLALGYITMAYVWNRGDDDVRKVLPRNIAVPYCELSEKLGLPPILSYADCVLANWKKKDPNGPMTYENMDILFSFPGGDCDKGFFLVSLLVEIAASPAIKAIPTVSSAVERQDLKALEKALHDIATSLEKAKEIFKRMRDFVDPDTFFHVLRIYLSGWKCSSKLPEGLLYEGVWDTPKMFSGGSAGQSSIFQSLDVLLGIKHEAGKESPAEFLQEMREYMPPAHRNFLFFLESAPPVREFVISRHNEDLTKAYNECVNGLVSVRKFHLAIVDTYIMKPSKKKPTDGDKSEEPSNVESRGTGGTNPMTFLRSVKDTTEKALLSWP

percentage of decrease of kynurenine level at two hours [%] | SMILES
37 | Cc1cc(-c2nccc(/C(C#N)=N/c3ccccc3Cl)c2O)ccn1 [Compound 25, N-(2-Chlorophenyl)-3-hydroxy-2′-methyl-[2,4′-bipyridine]-4-carbimidoyl nitrile]
64 | N#C/C(=N\c1ccc(F)c(C(F)(F)F)c1)c1ccncc1O [Compound 05, N-(4-Fluoro-3-(trifluoromethyl)phenyl)-3-hydroxyisonicotinimidoyl nitrile]
71 | Cc1cc(-c2nccc(/C(C#N)=N/c3ccc(F)c(Cl)c3)c2O)ccn1 [Compound 09, N-(3-Chloro-4-fluorophenyl)-3-hydroxy-2′-methyl-[2,4′-bipyridine]-4-carbimidoyl nitrile]
79 | Cc1cc(-c2nccc(/C(C#N)=N/c3ccc(F)c(F)c3)c2O)ccn1 [Compound 10, N-(3,4-Difluorophenyl)-3-hydroxy-2′-methyl-[2,4′-bipyridine]-4-carbimidoyl nitrile]
67 | CNC(=O)c1cc(-c2nccc(/C(C#N)=N/c3ccc(F)cc3)c2O)ccn1 [Compound 32, N-(4-Fluorophenyl)-3-hydroxy-2′-(methylcarbamoyl)-[2,4′-bipyridine]-4-carbimidoyl nitrile]
73 | N#C/C(=N\c1ccc(F)c(Cl)c1)c1ccncc1O [Compound 01, N-(3-Chloro-4-fluorophenyl)-3-hydroxyisonicotinimidoyl nitrile]
36 | Cc1cc(-c2nccc(/C(C#N)=N/c3ccc(F)c(Cl)c3)c2O)cc(C)n1 [Compound 16]
45 | N#C/C(=N\c1ccc(F)c(Cl)c1)c1ccnc(C#N)c1O [Compound 02, N-(3-Chloro-4-fluorophenyl)-2-cyano-3-hydroxyIsonicotinimidoyl nitrile]
77 | N#C/C(=N\c1ccc(F)c(Cl)c1)c1ccnc(-c2ccncc2)c1O [Compound 04, N-(3-Chloro-4-fluorophenyl)-3-hydroxy-[2,4′-bipyridine]-4-carbimidoyl nitrile]
46 | N#C/C(=N\c1ccccc1Cl)c1ccnc(-c2ccncc2)c1O [Compound 20]
53 | Cc1nccc(/C(C#N)=N/c2ccc(F)c(Cl)c2)c1O [Compound 18, N-(3-Chloro-4-fluorophenyl)-3-hydroxy-2-methylisonicotinimidoyl nitrile]
38 | N#C/C(=N\c1ccc(F)c(Cl)c1)c1ccnc(Br)c1O [Compound 19, 2-Bromo-N-(3-chloro-4-fluorophenyl)-3-hydroxyIsonicotinimidoyl nitrile]
74 | N#C/C(=N\c1cccc(F)c1)c1ccncc1O [Compound 35, N-(3-Fluorophenyl)-3-hydroxyisonIcotinimidoyl nitrile]
67 | N#C/C(=N\c1cccc(C(F)(F)F)c1)c1ccncc1O [Compound 34, 3-Hydroxy-N-(3-(trifluoromethyl)phenyl)isonicotinimidoyl nitrile]
32 | N#C/C(=N\c1cccc(C(F)(F)F)c1)c1ccnc(-c2ccccc2)c1O [Compound 42, 3-Hydroxy-2-phenyl-N-(3-(trifluoromethyl)phenyl)isonicotinimidoyl nitrile]
47 | COc1cc(-c2nccc(/C(C#N)=N/c3ccc(F)c(Cl)c3)c2O)ccn1 [Compound 15, N-(3-Chloro-4-fluorophenyl)-3-hydroxy-2′-methoxy-[2,4′-bipyridine]-4-carbimidoyl nitrile]
81 | N#C/C(=N\c1cccc(F)c1)c1ccnc(-c2ccncc2)c1O [Compound 41, N-(3-Fluorophenyl)-3-hydroxy-[2,4′-bipyridine]-4-carbimidoyl nitrile]
68 | CNC(=O)c1cc(-c2nccc(/C(C#N)=N/c3ccc(F)c(F)c3)c2O)ccn1 [Compound 37, N-(3,4-Difluorophenyl)-3-hydroxy-2′-(methylcarbamoyl)-[2,4′-bipyridine]-4-carbimidoyl nitrile]

percentage of decrease of kynurenine level at two hours [%] | SMILES
73 | N#C/C(=N\c1ccc(F)c(Cl)c1)c1cc(F)ncc1O [Compound 06, N-(3-Chloro-4-fluorophenyl)-2-fluoro-5-hydroxyIsonicotinimidoyl nitrile]
46 | N#C/C(=N\c1ccc(F)c(Cl)c1)c1ccnc(-c2ccccc2)c1O [Compound 13, N-(3-Chloro-4-fluorophenyl)-3-hydroxy-2-phenylisonicotinimidoyl nitrile]
43 | CNC(=O)c1cc(-c2nccc(/C(C#N)=N/c3ccc(F)c(Cl)c3)c2O)ccn1 [Compound 07, N-(3-Chloro-4-fluorophenyl)-3-hydroxy-2′-(methylcarbamoyl)-[2,4′-bipyridine]-4-carbimidoyl nitrile]
67 | Cc1cc(-c2nccc(/C(C#N)=N/c3ccc(F)c(C(F)(F)F)c3)c2O)ccn1 [Compound 39, N-(4-Fluoro-3-(trifluoromethyl)phenyl)-3-hydroxy-2′-methyl-[2,4′-bipyridine]-4-carbimidoyl nitrile]
75 | Cc1cc(-c2nccc(/C(C#N)=N/c3cccc(F)c3)c2O)ccn1 [Compound 29, N-(3-Fluorophenyl)-3-hydroxy-2′-methyl-[2,4′-bipyridine]-4-carbimidoyl nitrile]
21 | N#C/C(=N\c1ccc(F)c(Cl)c1)c1ccnc(-c2cc(F)nc(F)c2)c1O [Compound 21, N-(3-Chloro-4-fluorophenyl)-2′,6′-difluoro-3-hydroxy-[2,4′-bipyridine]-4-carbimidoyl nitrile]
69 | Cc1cc(-c2nccc(/C(C#N)=N/c3cccc(C(F)(F)F)c3)c2O)ccn1 [Compound 38, 3-Hydroxy-2′-methyl-N-(3-(trifluoromethyl)phenyl)-[2,4′-bipyridine]-4-carbimidoyl nitrile]
79 | N#C/C(=N\c1ccc(F)c(F)c1)c1ccncc1O [Compound 36, N-(3,4-Difluorophenyl)-3-hydroxyisonicotinimidoyl nitrile]
64 | Cc1cc(-c2nccc(/C(C#N)=N/c3ccc(F)cc3F)c2O)ccn1 [Compound 27, N-(2,4-Difluorophenyl)-3-hydroxy-2′-methyl-[2,4′-bipyridine]-4-carbimidoyl nitrile]
77 | N#C/C(=N\c1ccc(F)c(Cl)c1)c1ccnc(-c2cccnc2)c1O [Compound 44, N-(3-Chloro-4-fluorophenyl)-3-hydroxy-[2,3′-bipyridine]-4-carbimidoyl nitrile]
77 | N#C/C(=N\c1ccc(F)c(C(F)(F)F)c1)c1ccnc(-c2ccncc2)c1O [Compound 40, N-(4-Fluoro-3-(trifluoromethyl)phenyl)-3-hydroxy-[2,4′-bipyridine]-4-carbimidoyl nitrile]
18 | COc1cc(/C(C#N)=N/c2ccc(F)c(Cl)c2)c(O)cn1 [Compound 14, N-(3-Chloro-4-fluorophenyl)-5-hydroxy-2-methoxyisonicotinimidoyl nitrile]
81 | Cc1cc(-c2nccc(/C(C#N)=N/c3ccccc3)c2O)ccn1 [Compound 24, 3-Hydroxy-2′-methyl-N-phenyl-[2,4′-bipyridine]-4-carbimidoyl nitrile]
83 | N#C/C(=N\c1ccc(F)c(F)c1)c1ccnc(-c2ccncc2)c1O [Compound 08, N-(3,4-Difluorophenyl)-3-hydroxy-[2,4′-bipyridine]-4-carbimidoyl nitrile]
10 | N#C/C(=N\c1ccc(F)c(Cl)c1)c1ccnc(-c2ccc3c(c2)OCO3)c1O [Compound 17, 2-(Benzo[d][1,3]dioxol-5-yl)-N-(3-chloro-4-fluorophenyl)-3-hydroxyisonicotinimidoyl nitrile]
11 | Cc1cc(-c2nc(C)cc(/C(C#N)=N/c3ccc(F)c(Cl)c3)c2O)ccn1 [Compound 26, N-(3-Chloro-4-fluorophenyl)-3-hydroxy-2′,6-dimethyl-[2,4′-bipyridine]-4-carbimidoyl nitrile]
15 | N#C/C(=N\c1ccc(F)c(Cl)c1)c1ccnc(Nc2ccccc2)c1O [Compound 12, N-(3-Chloro-4-fluorophenyl)-3-hydroxy-2-(phenylamino)isonicotinimidoyl nitrile]
